# Data: paper PMC11249953, “c-KIT inhibitors reduce pathology and improve behavior in the Tg(SwDI) model of Alzheimer’s disease” (Life Science Alliance, 2024)
# Several values for one entry are separate records, joined by “and”; a condition that tells them apart may be missing. Identical values can stand only once.
# Legend:
# SRC = molecular target: T1, SRC (Homo sapiens, UniProt P12931); assay: KINOMEscan competition binding, SRC; details: 10 µM compound; for remaining binding at 10 µM: lower = stronger binding, read-out: SRC %Ctrl @ 10000nM (POC)
# T1 construct: DNA label for qPCR read-out (T7 phage fusion or DNA tag); purchased Eurofins DiscoverX Corporation; host or cells: T7 phage in E. coli (BL21-derived) or HEK-293
# T1 sequence (P12931 whole entry, the tested form may be a part): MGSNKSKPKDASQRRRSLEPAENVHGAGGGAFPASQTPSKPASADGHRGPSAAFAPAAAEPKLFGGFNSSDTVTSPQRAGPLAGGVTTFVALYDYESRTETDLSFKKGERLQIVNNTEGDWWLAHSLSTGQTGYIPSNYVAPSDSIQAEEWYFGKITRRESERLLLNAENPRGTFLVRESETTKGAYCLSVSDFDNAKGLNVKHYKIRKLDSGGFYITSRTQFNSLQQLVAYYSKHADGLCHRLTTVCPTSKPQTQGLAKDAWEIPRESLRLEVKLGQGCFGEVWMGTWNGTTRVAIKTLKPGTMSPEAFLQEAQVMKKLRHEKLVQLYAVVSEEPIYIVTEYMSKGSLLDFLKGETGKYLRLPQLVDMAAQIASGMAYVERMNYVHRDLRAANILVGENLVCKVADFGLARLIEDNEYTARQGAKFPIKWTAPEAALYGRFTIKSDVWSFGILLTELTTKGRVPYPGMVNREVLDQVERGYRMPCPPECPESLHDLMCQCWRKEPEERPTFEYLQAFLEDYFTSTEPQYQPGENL
# Description: (§1) The KINOMEscan screening platform (Eurofins DiscoverX Corporation) was performed using active site-directed competition binding assay to quantitatively measure interactions between BK40143 and BK40197 and more than 450 human kinases and disease relevant mutant variants. […] Screening “hits” are identified by measuring the amount of kinase captured in test (BK40143 and BK40197) versus control samples by using a quantitative and ultra-sensitive qRT-PCR method that detects the associated DNA label. BK40143 and BK40197 were screened at 10 µM concentration, and results for primary screen binding interactions were reported as “% Ctrl” (POC), where lower numbers indicate stronger hits and calculated as follows: [test compound signal−positive control signal/negative control signal−positive control signal]×100
# (§2) negative control = DMSO (100% Ctrl)
# (§3) positive control = control compound (0% Ctrl)
# (§4) Based on screening data from of profiled compounds, a proportional relationship between primary screening results and corresponding compound/target affinities can be described as binding constants (Kd values) for the indicated ranges of POC values with tighter binding (higher affinity) interactions associated with lower POC values and weaker binding (lower affinity) associated with higher POC values. Briefly, kinase-tagged T7 phage strains were grown in parallel in 24-well blocks in an E. coli host derived from the BL21 strain. E. coli were grown to log-phase and infected with T7 phage from a frozen stock (multiplicity of infection = 0.4) and incubated with shaking at 32°C until lysis (90–150 min). The lysates were centrifuged (6,000g) and filtered (0.2 μm) to remove cell debris. The remaining kinases were produced in HEK-293 cells and subsequently tagged with DNA for qRT-PCR detection. Streptavidin-coated magnetic beads were treated with biotinylated small molecule ligands for 30 min at RT to generate affinity resins for kinase assays. The liganded beads were blocked with excess biotin and washed with blocking buffer (1% BSA, 0.05% Tween 20, 1 mM DTT; SeaBlock [Pierce]) to remove unbound ligand and to reduce non-specific phage binding. Binding reactions were assembled by combining kinases, liganded affinity beads, and test compounds in 1x binding buffer (20% 0.17x PBS, 0.05% Tween 20, 6 mM DTT; SeaBlock). Test compounds were prepared as 100x stocks in 100% DMSO and directly diluted into the assay. All reactions were performed in polypropylene 384-well plates in a final volume of 0.02 ml. The assay plates were incubated at RT with shaking for 1 h and the affinity beads were washed with wash buffer (1x PBS, 0.05% Tween 20). […] The kinase concentration in the eluates was measured by qRT-PCR.
# LCK = molecular target: T2, LCK (Homo sapiens, UniProt P06239); assay: KINOMEscan competition binding, LCK; details: 10 µM compound; for remaining binding at 10 µM: lower = stronger binding, read-out: LCK %Ctrl @ 10000nM (POC)
# T2 construct: DNA label for qPCR read-out (T7 phage fusion or DNA tag); purchased Eurofins DiscoverX Corporation; host or cells: T7 phage in E. coli (BL21-derived) or HEK-293
# T2 sequence (P06239 whole entry, the tested form may be a part): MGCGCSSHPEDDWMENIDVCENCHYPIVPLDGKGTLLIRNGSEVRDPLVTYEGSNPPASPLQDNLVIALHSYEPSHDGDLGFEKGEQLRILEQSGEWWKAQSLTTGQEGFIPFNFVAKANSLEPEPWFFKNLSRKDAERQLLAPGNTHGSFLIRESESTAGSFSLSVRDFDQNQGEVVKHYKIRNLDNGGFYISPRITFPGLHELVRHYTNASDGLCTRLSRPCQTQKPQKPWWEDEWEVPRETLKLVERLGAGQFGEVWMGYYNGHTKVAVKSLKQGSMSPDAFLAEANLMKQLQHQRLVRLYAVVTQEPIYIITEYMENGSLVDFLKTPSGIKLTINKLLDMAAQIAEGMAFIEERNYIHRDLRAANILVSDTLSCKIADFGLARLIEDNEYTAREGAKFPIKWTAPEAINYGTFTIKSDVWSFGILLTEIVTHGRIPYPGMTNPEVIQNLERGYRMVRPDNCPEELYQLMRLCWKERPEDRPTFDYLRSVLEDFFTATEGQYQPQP
# Description: as §1, §2, §3, §4
# ABL1 = molecular target: T3, ABL1 (Homo sapiens, UniProt P00519); assay: KINOMEscan competition binding, ABL1; details: 10 µM compound; for remaining binding at 10 µM: lower = stronger binding, read-out: ABL1 %Ctrl @ 10000nM
# T3 construct: DNA label for qPCR read-out (T7 phage fusion or DNA tag); purchased Eurofins DiscoverX Corporation; host or cells: T7 phage in E. coli (BL21-derived) or HEK-293
# T3 sequence (P00519 whole entry, the tested form may be a part): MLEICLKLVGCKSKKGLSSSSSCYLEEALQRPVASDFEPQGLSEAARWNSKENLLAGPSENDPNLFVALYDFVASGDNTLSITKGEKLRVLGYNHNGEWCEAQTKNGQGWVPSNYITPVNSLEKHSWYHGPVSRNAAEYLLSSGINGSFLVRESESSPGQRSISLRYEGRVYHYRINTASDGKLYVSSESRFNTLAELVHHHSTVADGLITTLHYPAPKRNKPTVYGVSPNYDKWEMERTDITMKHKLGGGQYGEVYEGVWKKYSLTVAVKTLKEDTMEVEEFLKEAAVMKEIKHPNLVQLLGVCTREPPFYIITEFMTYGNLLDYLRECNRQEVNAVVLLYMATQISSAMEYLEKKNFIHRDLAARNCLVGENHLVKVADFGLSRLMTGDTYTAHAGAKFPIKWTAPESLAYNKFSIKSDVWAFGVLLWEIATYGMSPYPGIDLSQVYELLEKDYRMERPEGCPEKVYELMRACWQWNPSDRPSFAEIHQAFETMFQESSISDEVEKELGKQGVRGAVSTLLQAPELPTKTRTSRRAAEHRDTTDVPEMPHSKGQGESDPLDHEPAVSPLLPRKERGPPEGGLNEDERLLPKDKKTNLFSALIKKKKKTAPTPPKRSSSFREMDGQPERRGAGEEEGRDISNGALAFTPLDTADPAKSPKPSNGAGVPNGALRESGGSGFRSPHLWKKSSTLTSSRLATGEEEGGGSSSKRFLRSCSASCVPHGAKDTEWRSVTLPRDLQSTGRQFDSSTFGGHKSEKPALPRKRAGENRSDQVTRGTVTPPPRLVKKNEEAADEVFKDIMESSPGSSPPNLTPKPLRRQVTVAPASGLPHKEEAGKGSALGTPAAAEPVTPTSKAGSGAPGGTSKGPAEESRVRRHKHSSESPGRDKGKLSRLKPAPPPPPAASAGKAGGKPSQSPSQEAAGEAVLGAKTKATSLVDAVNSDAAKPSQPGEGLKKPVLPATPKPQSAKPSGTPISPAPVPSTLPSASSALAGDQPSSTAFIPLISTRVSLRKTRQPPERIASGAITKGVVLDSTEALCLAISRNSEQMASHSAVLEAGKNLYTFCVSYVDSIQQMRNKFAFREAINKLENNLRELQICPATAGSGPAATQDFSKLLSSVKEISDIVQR
# Description: as §1, §2, §3, §4
# TgAPP mice = assay: Novel object recognition, TgAPP mice; type: in vivo, mouse; details: BK40143 5 mg/kg, BK40197 45 mg/kg IP, 6 wk, vs DMSO
# Description: (§5) Novel object recognition was carried out using a 50 × 50 cm arena with clear walls covered by brown construction paper. Mice were habituated to the room for 30 min each day, before being allowed to freely explore the arena for 5 min two times, for 3 d. On the 4th d, two identical objects were placed in the arena in opposite adjacent corners, 10 cm from the corner of the arena. Mice were placed along the wall opposite from the objects and allowed to freely explore for 10 min. Approach behavior (extending nose toward the object) toward both objects was recorded manually using handheld stop watches and compared with ensure there was no preference for either neutral object. For the probe trial, one object was removed and replaced with a novel object, and mice were again allowed to freely explore for 10 min, with approach time towards the novel and familiar objects recorded. Trials in which the mice explored for less than 1 s were excluded. Discrimination index was calculated by dividing time spent exploring the novel object by total time exploring both objects and was compared for treated versus control animals.
# [1] = system: amyloid-beta in TgAPP mice; assay: Immunohistochemistry for amyloid-beta (6E10), hippocampus; type: in vivo, mouse; details: BK40143 5 mg/kg, BK40197 45 mg/kg, vs DMSO
# Description: Staining for amyloid-beta and microglia was performed on left brain hemispheres collected from treated and untreated mice. Brains were cryoprotected with 30% sucrose and sectioned at 30 μm on a cryostat. Sections were then treated with an anti-amyloid beta (6E10, cat. #803001; BioLegend) or anti-IBA1 (cat. # 018-28523; Wako Chemicals) primary followed by either an AlexaFluor secondary (Thermo Fisher Scientific) and DAPI mounting medium (Vector Labs) or a biotinylated secondary and 3, 3′ diaminobenzidine chromogen substrate. Slides were imaged on either a Leica DMi8 light microscope or a Zeiss LSM 800 confocal microscope.
# [2] = system: amyloid-beta in TgAPP mice; assay: ELISA for amyloid-beta in brain lysates; type: in vivo, mouse; details: vs DMSO
# Description: All samples were analyzed in parallel using the same reagents. A total of 25 μl soluble protein was incubated overnight at 4°C with 25 μl of a mixed bead solution. After washing, samples were incubated with 25 μl detection antibody solution for 1.5 h at RT. Streptavidin–phycoerythrin (25 μl) was added to each well containing the 25 μl of detection antibody solution. Samples were then washed and suspended in 100 μl of sheath fluid. Samples were then run on MAGPIX with Xponent software. The median fluorescent intensity data were analyzed using a five-parameter logistic or spline curve-fitting method for calculating analyte concentrations in samples. Specific pTau ser396 (KHB7031; Invitrogen), aggregated Aβ (KHB3491; Thermo Fisher Scientific), and Aβ42 (KHB3442; Invitrogen) were performed according to manufacturer’s protocol on tissue soluble extracts from brain lysates in 1XSTEN buffer.
# mice = assay: Novel object recognition, source data sheet NOR (mouse line not given); type: in vivo; parameters: key to Probe: DI (Discrimination Index: Novel / Total) / Familiarization: DI / Familiarization: DI, group mean / Familiarization DI: DI = novel-object exploration time / total exploration time of both objects; Familiarization: Total / Familiarization B / Familiarization Total: unit not given here; details: for Familiarization: A (exploration of object A) / Familiarization: B (exploration of object B) / Familiarization: DI / Familiarization: Total / Probe: DI (Discrimination Index: Novel / Total) / Probe: Familiar / Probe: Novel / Probe: Total: individual mice; for Probe DI: Discrimination Index: Novel / Total; for Probe DI / Familiarization Total / Familiarization B / Familiarization DI / Probe Familiar / Probe Total / Probe Novel / % Difference: one value per mouse; for Familiarization Total / Familiarization B / Familiarization DI / Probe Familiar / Probe Total / Probe Novel: novel object recognition; for Familiarization Total: A + B; for Familiarization B: object B; for Probe Familiar: familiar object; for Probe Total: novel + familiar; for Probe Novel: novel object; for % Difference: probe DI minus familiarization DI, Exclude trials where mice explored <1s
# Description: as §5
smiles,measurement,setting,value
Cc1cccc(-c2cc3nccc(Nc4ccccc4)c3s2)c1 [BK40143],inhibition at 10 µM,SRC,84.7%
same,remaining binding at 10 µM,SRC,5.3%
same,inhibition at 10 µM,LCK,92.9%
same,remaining binding at 10 µM,LCK,7.1%
same,inhibition at 10 µM,ABL1,90%
same,remaining binding at 10 µM,ABL1,10%
same,novel object recognition: time exploring the novel object,TgAPP mice,spent significantly greater amounts of time exploring the novel object
same,amyloid concentrations in dentate gyrus (6E10 staining),[1],robustly decreased amyloid concentrations in the dentate gyrus of the hippocampus
same,Aβ concentration in brain lysate (ELISA),[2],significantly reduced Aβ and pTau (396) concentrations
same,"Familiarization: DI, group mean",mice; 2.5mg/kg,0.4194
same,"Probe: DI, group mean",mice; 2.5mg/kg,0.6322
same,Familiarization: A (exploration of object A),"mice; 2.5mg/kg, listed as 143",79.74 and 23.94 and 6.51 and 4.1 and 1.73 and 91.39 and 3.94
same,Familiarization: B (exploration of object B),"mice; 2.5mg/kg, listed as 143",36.19 and 20.07 and 19.62 and 23.82 and 2.46 and 58.89 and 9.8
same,Familiarization: DI,"mice; 2.5mg/kg, listed as 143",0.6878 and 0.544 and 0.2491 and 0.1468 and 0.4129 and 0.6081 and 0.2868
same,Familiarization: Total,"mice; 2.5mg/kg, listed as 143",115.93 and 44.01 and 26.13 and 27.92 and 4.19 and 150.28 and 13.74
same,Probe: DI (Discrimination Index: Novel / Total),"mice; 2.5mg/kg, listed as 143",0.6527 and 0.5219 and 0.7012 and 0.6866 and 0 and 0.6684 and 0.5624
same,Probe: Familiar,"mice; 2.5mg/kg, listed as 143",12.56 and 26.64 and 26.04 and 10.96 and 0.71 and 19.02 and 21.52
same,Probe: Novel,"mice; 2.5mg/kg, listed as 143",23.6 and 29.08 and 61.12 and 24.01 and 0 and 38.34 and 27.66
same,Probe: Total,"mice; 2.5mg/kg, listed as 143",36.16 and 55.72 and 87.16 and 34.97 and 0.71 and 57.36 and 49.18
same,"Familiarization: DI, group mean",mice; 5.0mg/kg,0.4517
same,"Probe: DI, group mean",mice; 5.0mg/kg,0.5431
same,Familiarization: A (exploration of object A),"mice; 5.0mg/kg, listed as 143",6.57 and 57.74 and 55.12 and 0 and 31.22 and 2.26 and 24.68 and 3.81
same,Familiarization: B (exploration of object B),"mice; 5.0mg/kg, listed as 143",6.09 and 45.42 and 59.49 and 0 and 28.62 and 34.43 and 1.4 and 35.06 and 3.14
same,Familiarization: DI,"mice; 5.0mg/kg, listed as 143",0.519 and 0.5597 and 0.4809 and 0 and 0.4756 and 0.6175 and 0.4131 and 0.5482
same,Familiarization: Total,"mice; 5.0mg/kg, listed as 143",12.66 and 103.16 and 114.61 and 0 and 28.62 and 65.65 and 3.66 and 59.74 and 6.95
same,Probe: DI (Discrimination Index: Novel / Total),"mice; 5.0mg/kg, listed as 143",0.5491 and 0.4762 and 0.6019 and 0.4523 and 0.4543 and 0.6392 and 0.6671 and 0.5538 and 0.5229 and 0.5147
same,Probe: Familiar,"mice; 5.0mg/kg, listed as 143",31.58 and 54.9 and 31.99 and 22.78 and 6.63 and 10.02 and 2.44 and 2.49 and 12.81 and 27.34
same,Probe: Novel,"mice; 5.0mg/kg, listed as 143",38.46 and 49.91 and 48.36 and 18.81 and 5.52 and 17.75 and 4.89 and 3.09 and 14.04 and 29
same,Probe: Total,"mice; 5.0mg/kg, listed as 143",70.04 and 104.81 and 80.35 and 41.59 and 12.15 and 27.77 and 7.33 and 5.58 and 26.85 and 56.34
same,Probe DI,mice; listed as 143,0.8287 and 0.6842 and 0.7687 and 1 and 0 and 0.615 and 0.4318 and 0.5747 and 0.1499 and 0.6797
same,Familiarization Total,mice; listed as 143,4.02 and 1.72 and 5.39 and 2.97 and 7.23 and 16.69 and 3.49 and 11.99 and 18.68 and 5.99
same,Familiarization B,mice; listed as 143,4.02 and 0.91 and 0.51 and 1.41 and 5.2 and 7.29 and 2.89 and 7.23 and 11.16 and 3.62
same,Familiarization DI,mice; listed as 143,0 and 0.4709 and 0.9054 and 0.5253 and 0.2808 and 0.5632 and 0.1719 and 0.397 and 0.4026 and 0.3957
same,Probe Familiar,mice; listed as 143,0.62 and 0.78 and 0.31 and 0 and 0.83 and 2.41 and 0.5 and 20.09 and 39.82 and 2.04
same,Probe Total,mice; listed as 143,3.62 and 2.47 and 1.34 and 5.82 and 0.83 and 6.26 and 0.88 and 47.24 and 46.84 and 6.37
same,Probe Novel,mice; listed as 143,3 and 1.69 and 1.03 and 5.82 and 0 and 3.85 and 0.38 and 27.15 and 7.02 and 4.33
same,% Difference,mice; listed as 143,82.8729% and 21.328% and -13.6724% and 47.4747% and 5.18% and 17.7727% and 28.4089%
Cc1cccc(-c2cc3nccc(N4CCOCC4)c3s2)c1 [BK40197],inhibition at 10 µM,SRC,19%
same,remaining binding at 10 µM,SRC,81%
same,inhibition at 10 µM,LCK,9%
same,remaining binding at 10 µM,LCK,91%
same,inhibition at 10 µM,ABL1,60%
same,remaining binding at 10 µM,ABL1,40%
same,novel object recognition: time exploring the novel object,TgAPP mice,spent significantly greater amounts of time exploring the novel object
same,amyloid concentrations in dentate gyrus (6E10 staining),[1],robustly decreased amyloid concentrations in the dentate gyrus of the hippocampus
same,Aβ concentration in brain lysate (ELISA),[2],significantly reduced Aβ and pTau (396) concentrations
same,Probe DI,mice; listed as 197,0.7189 and 0.4276 and 0.6036 and 0 and 0.3497 and 0.7629 and 0.5645
same,Familiarization Total,mice; listed as 197,6.07 and 3.17 and 0.72 and 1.59 and 2.09 and 99.73 and 4.98 and 1.54 and 46.43
same,Familiarization B,mice; listed as 197,4.54 and 2.11 and 0 and 0.44 and 2.09 and 67.09 and 3.73 and 0.91 and 31.96
same,Familiarization DI,mice; listed as 197,0.2521 and 0.3344 and 1 and 0.7233 and 0 and 0.3273 and 0.251 and 0.4091 and 0.3117
same,Probe Familiar,mice; listed as 197,3.8 and 3.44 and 1.78 and 0.31 and 0 and 59.03 and 0.92 and 1.62
same,Probe Total,mice; listed as 197,13.52 and 6.01 and 4.49 and 0.31 and 0 and 90.78 and 3.88 and 3.72
same,Probe Novel,mice; listed as 197,9.72 and 2.57 and 2.71 and 0 and 31.75 and 2.96 and 2.1
same,% Difference,mice; listed as 197,46.6876% and 9.324% and -39.6437% and 2.2463% and 51.1883% and 15.5425%
